Reference: US11618747B2, “LXR modulators with bicyclic core moiety” (OrsoBio, Inc., priority 2018, dated 2023)

What was measured:
[1] = biological target: T1, full length (FL) LXRβ (Homo sapiens, UniProt P55055, DUP175-175); assay: LXR Gal4 reporter transient transfection assay (FL-M2H Gal4β); assay type: cell-based; details: HEK293 cells, full length LXRβ; read-out: FL-M2H Gal4β (EC50 range)
T1 construct: the full length (FL) proteins of LXRα (amino acids 1-447); NP005684; NP009052; expressed in transfected cells; host or cells: HEK293
T1 sequence (P55055 with tags, fused parts or gaps DUP175-175): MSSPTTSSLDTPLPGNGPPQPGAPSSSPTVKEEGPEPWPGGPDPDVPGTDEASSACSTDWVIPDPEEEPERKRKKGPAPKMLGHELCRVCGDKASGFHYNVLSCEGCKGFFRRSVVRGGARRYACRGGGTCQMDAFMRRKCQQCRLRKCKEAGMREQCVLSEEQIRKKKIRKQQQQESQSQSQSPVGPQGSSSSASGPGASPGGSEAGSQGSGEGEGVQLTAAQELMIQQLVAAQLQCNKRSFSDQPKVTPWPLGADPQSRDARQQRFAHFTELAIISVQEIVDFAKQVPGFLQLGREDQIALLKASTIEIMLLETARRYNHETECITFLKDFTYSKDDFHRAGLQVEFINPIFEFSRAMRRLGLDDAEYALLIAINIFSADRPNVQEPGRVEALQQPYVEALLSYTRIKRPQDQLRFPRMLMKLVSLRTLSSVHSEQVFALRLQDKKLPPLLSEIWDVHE
Method in brief: (§1)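 Two-hybrid assay pairing LXR constructs (FL aa 1-447/1-461 or LBD aa 155-447/156-461) with coactivator SRC1 or corepressor NCoR in HEK293. Sulfonyl acetic acid stocks contained trifluoroacetic acid. Compounds: 16 h; read-out dual luciferase.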

[2] = biological target: T2, full length (FL) LXRα (Homo sapiens, UniProt Q13133); assay: LXR Gal4 reporter transient transfection assay (FL-M2H Gal4α); assay type: cell-based; details: HEK293 cells, full length LXRα; read-out: FL-M2H Gal4α (EC50 range)
T2 construct: the full length (FL) proteins of LXRα (amino acids 1-447); NP005684; expressed in transfected cells; host or cells: HEK293
T2 sequence (Q13133 1-447): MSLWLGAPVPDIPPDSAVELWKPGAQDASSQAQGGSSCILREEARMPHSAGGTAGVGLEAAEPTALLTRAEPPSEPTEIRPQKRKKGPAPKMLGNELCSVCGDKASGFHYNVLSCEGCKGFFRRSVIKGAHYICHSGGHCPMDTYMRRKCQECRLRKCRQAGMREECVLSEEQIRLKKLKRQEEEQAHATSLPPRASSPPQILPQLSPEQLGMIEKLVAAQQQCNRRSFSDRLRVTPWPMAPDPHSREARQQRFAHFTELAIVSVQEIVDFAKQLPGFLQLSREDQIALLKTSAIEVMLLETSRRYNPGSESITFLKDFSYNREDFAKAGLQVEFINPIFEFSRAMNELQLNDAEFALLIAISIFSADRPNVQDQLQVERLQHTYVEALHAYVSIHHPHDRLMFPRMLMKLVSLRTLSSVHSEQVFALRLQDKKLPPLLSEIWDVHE
Method in brief: as §1

[3] = biological target: T3, LXRβ ligand-binding domain (Homo sapiens, UniProt P55055, DUP175-175); assay: TR-FRETβ activity assay (NCoA3 coactivator peptide recruitment); assay type: biochemical; details: TR-FRET, 1 μM 24(S)-25-epoxycholesterol prestimulation; read-out: FRETβ (EC50 range)
T3 construct: amino acids 156-461; NP009052; made in house; host or cells: E. coli
T3 sequence (P55055 with tags, fused parts or gaps DUP175-175 limits assumed): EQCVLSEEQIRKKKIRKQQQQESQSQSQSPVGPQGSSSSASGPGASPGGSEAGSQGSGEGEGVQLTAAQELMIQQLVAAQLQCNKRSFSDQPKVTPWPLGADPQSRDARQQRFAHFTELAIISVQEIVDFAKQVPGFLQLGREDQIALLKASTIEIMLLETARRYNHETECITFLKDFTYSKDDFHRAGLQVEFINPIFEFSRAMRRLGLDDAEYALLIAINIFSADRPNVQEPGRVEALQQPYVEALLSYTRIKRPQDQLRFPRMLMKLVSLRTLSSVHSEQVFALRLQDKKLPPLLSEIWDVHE
Method in brief: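 Inverse agonism assessed by loss of coactivator recruitment, read as TR-FRET 665/615 nm after 1 h equilibration at 4 °C, in triplicate. Ten-point titration from 50 μM to 0.002 μM against LXRβ LBD (76 nM, GST fusion) prestimulated with 1 μM 24(S)-25-epoxycholesterol, with 400 nM NCoA3 peptide, pH 6.8. Sulfonyl acetic acids kept as 20 mM DMSO stocks with 100 mM TFA.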

SMILES	EC50 [1] [nM]	EC50 [2] [nM]	EC50 [3] [nM]
N#Cc1cccc(C#N)c1-c1c(-c2cccc(C34CCC(C(=O)O)(CC3)CC4)c2)n(S(=O)(=O)c2ccc(C(F)F)cc2)c2ccc(F)cc12 [11/58]	< 100	< 100	< 100
Cc1ccc(S(=O)(=O)n2c(-c3cccc(-c4ccc(C(=O)O)cc4Cl)c3)c(-c3cccc(F)c3C#N)c3cc(F)ccc32)cc1 [11/1]	< 100	< 100	< 100
N#Cc1cccc(C#N)c1-c1c(-c2cccc(C3CC3C(=O)O)c2)n(S(=O)(=O)c2ccc(C(F)F)cc2)c2ccc(F)cc12 (stereo not drawn) [3/68]	< 100	< 100	100 to 1000
COc1cc(C(=O)O)ccc1-c1cccc(-c2c(-c3ccccc3C#N)c3cc(F)ccc3n2S(=O)(=O)c2ccc(C(F)F)cc2)c1 [11/29]	< 100	< 100	< 100
N#Cc1sccc1-c1c(-c2cccc(-c3ccc(C(=O)O)cc3)c2)n(S(=O)(=O)c2ccc3c(c2)CCC3)c2ccc(F)cc12 [23/3]	< 100	< 100	100 to 1000
Cn1ccc(-c2c(-c3cccc(-c4ccc(C(=O)O)cc4Cl)c3)n(S(=O)(=O)c3ccc(C(F)F)cc3)c3ccc(F)cc23)c1C#N [11/68]	< 100	< 100	< 100
Cc1ccc(S(=O)(=O)n2c(-c3cccc(N4CC(C(=O)O)C4)c3)c(-c3ccsc3C#N)c3cc(C#N)ccc32)cc1 [3/45]	100 to 1000	100 to 1000	1000 to 10000
Cc1ccc(S(=O)(=O)n2c(-c3cccc(-c4ccc(C(=O)O)cc4Cl)c3)c(-c3ccc(C)cc3C#N)c3cc(F)ccc32)cc1 [11/4]	< 100	< 100	100 to 1000
O=C(O)c1ccc(-c2cccc(-c3c(-c4ccsc4C(F)F)c4cc(F)ccc4n3S(=O)(=O)c3ccc(Cl)cc3)c2)c(Cl)c1 [11/21]	< 100	< 100	< 100
N#Cc1sccc1-c1c(-c2cccc(-c3ccc(C(=O)O)cc3Cl)c2)n(S(=O)(=O)c2ccc(F)cc2)c2ccc(F)cc12 [11/18]	< 100	< 100	100 to 1000
Cc1ccc(S(=O)(=O)n2c(-c3cccc(-c4ccc(C(=O)O)cc4Cl)c3)c(-c3c(C)cccc3C#N)c3cc(F)ccc32)cc1 [11/6]	< 100	< 100	< 100
CC1CCN(S(=O)(=O)n2c(-c3cccc(-c4ccc(C(=O)O)cc4Cl)c3)c(-c3ccsc3C#N)c3cc(F)ccc32)CC1 [3/21]	< 100	< 100	100 to 1000
Cc1ccc(S(=O)(=O)n2c(-c3cccc(-c4ccc(C(=O)O)nc4C)c3)c(-c3ccsc3C#N)c3cc(F)ccc32)cc1 [36/1]	< 100	< 100	100 to 1000
N#Cc1ccc(S(=O)(=O)n2c(-c3cccc(-c4ccc(C(=O)O)cc4Cl)c3)c(-c3ccsc3C#N)c3cc(F)ccc32)cc1 [11/20]	< 100	< 100	100 to 1000
N#Cc1scnc1-c1c(-c2cccc(-c3cc(F)c(C(=O)O)cc3Cl)c2)n(S(=O)(=O)c2ccc(C(F)F)cc2)c2ccc(F)cc12 [11/9]	< 100	< 100	< 100
Cc1ccc(S(=O)(=O)n2c(-c3cccc(N4CC[C@@H](C(=O)O)C[C@H]4C)c3)c(-c3ccsc3C#N)c3cc(F)ccc32)cc1 [5/9]	< 100	100 to 1000	100 to 1000
Cc1cccc(C)c1-c1c(-c2cccc(-c3ccc(C(=O)O)cc3Cl)c2)n(S(=O)(=O)c2ccc(C(F)F)cc2)c2ccc(F)cc12 [11/14]	< 100	< 100	< 100
Cc1ccc(S(=O)(=O)n2c(-c3cccc(-c4ccc(CO)c(S(=O)(=O)CC(=O)O)c4)c3)c(-c3ccsc3C#N)c3ccccc32)cc1 [5/1]	100 to 1000	1000 to 10000	100 to 1000
Cc1ccc(S(=O)(=O)n2c(-c3cccc(N4CC(C(=O)O)C4)c3)c(-c3ccoc3C#N)c3cc(F)ccc32)cc1 [3/26]	< 100	100 to 1000	1000 to 10000
N#Cc1cccc(C#N)c1-c1c(-c2cccc(-c3ccc(C(=O)O)cc3Cl)c2)n(S(=O)(=O)c2ccc(Cl)cc2)c2ccc(F)cc12 [11/55]	< 100	< 100	< 100
N#Cc1cccc(F)c1-c1c(-c2cccc(-c3ccc(C(=O)O)cc3Cl)c2)n(S(=O)(=O)c2ccc(C(F)F)cc2)c2ccc(F)cc12 [11/34]	< 100	< 100	< 100
N#Cc1ccccc1-c1c(-c2cccc(-c3ccc(C(=O)O)c(O)c3Cl)c2)n(S(=O)(=O)c2ccc(C(F)F)cc2)c2ccc(F)cc12 [11/32]	< 100	< 100	< 100
Cc1cc(S(=O)(=O)n2c(-c3cccc(-c4ccc(C(=O)O)cc4Cl)c3)c(-c3ccsc3C#N)c3cc(F)ccc32)ccc1F [3/23]	< 100	< 100	100 to 1000
COc1cc(-c2c(-c3cccc(-c4ccc(C(=O)O)cc4Cl)c3)n(S(=O)(=O)c3ccc(C(F)F)cc3)c3ccc(F)cc23)c2c(C#N)cnn2c1 [11/46]	< 100	< 100	< 100
N#CC1=C(c2c(-c3cccc(-c4ccc(C(=O)O)cc4Cl)c3)n(S(=O)(=O)c3ccc(C(F)F)cc3)c3ccc(F)cc23)CCCC1 [11/42]	100 to 1000	100 to 1000	> 10000
CC1CCN(S(=O)(=O)n2c(-c3cccc(N4CC(C(=O)O)C4)c3)c(-c3ccsc3C#N)c3cc(F)ccc32)CC1 [3/36]	100 to 1000	100 to 1000	1000 to 10000
Cc1ccc(S(=O)(=O)n2c(-c3cccc(-c4ccc(C(C)(O)C(=O)O)cc4)c3)c(-c3ccsc3C#N)c3cc(F)ccc32)cc1 (stereo not drawn) [3/55]	< 100	< 100	100 to 1000
N#Cc1cccc(C#N)c1-c1c(-c2cccc(-c3c(F)c(F)c(C(=O)O)c(F)c3F)c2)n(S(=O)(=O)c2ccc(C(F)F)cc2)c2ccc(F)cc12 [11/54]	< 100	< 100	< 100
